Each structure is given as a SMILES string.

From patent US20060046999A1, “Monocyclic aroylpyridinones as antiinflammatory agents” (priority 2002, published 2006) come the findings set out here.

Chain of p38 map kinase (Q16539 whole entry): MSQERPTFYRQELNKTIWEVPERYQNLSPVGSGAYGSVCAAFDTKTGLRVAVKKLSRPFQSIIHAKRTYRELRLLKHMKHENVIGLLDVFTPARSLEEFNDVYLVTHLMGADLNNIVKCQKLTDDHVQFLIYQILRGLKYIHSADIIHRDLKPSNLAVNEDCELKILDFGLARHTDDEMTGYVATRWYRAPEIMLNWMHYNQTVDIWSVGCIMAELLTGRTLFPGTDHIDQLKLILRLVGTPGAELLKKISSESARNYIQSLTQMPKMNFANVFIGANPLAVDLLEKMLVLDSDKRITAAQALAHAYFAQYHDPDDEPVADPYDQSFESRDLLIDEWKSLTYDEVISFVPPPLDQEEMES

This assay addresses p38 map kinase (Homo sapiens, UniProt Q16539). The experiment in a line: p38 map kinase SPA [33P] assay. It counts as biochemical. Particulars: 10 μM ATP, 2.5 μM biotinylated MBP substrate, 90 min at 30° C. The source says: The assay makes use of the serine/threonine protein kinase SPA [^33P]-assay kit from Amersham Pharmacia Biotech. The assay is a homogeneous technique using SPA technology for the quantification of serine threonine kinase activity.
It is based on the p38 map kinase catalysed transfer of the γ-phosphate group of the [γ-^33P]-ATP to the substrate, biotinylated myelin basic protein (MBP). The resulting [^33P]-labelled biotinylated product is trapped on a PVT SPA bead containing scintillant which has been surface coated with streptavidin.
The beads are allowed to settle to eliminate high background, and therefore only ^33P_labelled product attached to the SPA bead is detected.
The assay is carried out in the presence and absence of test compounds to determine their effect on p38 map kinase activity.
A Test Protocol is as Follows:
• 1. SPA assay kit (Amersham). Components: • Assay buffer (store frozen) • Stop solution (store frozen) • Streptavidin coated SPA beads—reconstitute with 5 ml of PBS (50 mg/ml) (store in fridge) • 2. p38 map kinase enzyme (500 μg/ml)—aliquoted in 1.5 ml • dilute 1:10 to 50 μg/ml • 1 plate: 110 μl (stock 500 μg/ml)+990 μl PBS. • 3. Assay reagent: • for 1 plate: 504 μl assay buffer [500 mM MOPS pH 7.2, 10 μM ATP, 50 mM MgCl2, 25 μM biotinylated myelin basic protein (MBP)] • 2513.4 μl water • 1.1 μl [^33P]-ATP (10 μCi/μl) (on activity date/adjust for activity date) • 4.534 μl X10-2M ATP in water • 4. Stop solution: • for 1 plate: 265.92 μl streptavidin coated beads (50 mg/ml) • 1651.68 μl stop buffer (500 μM ATP, 50 mM EDTA, 1% Triton X-100) • 7084.32 μl PBS. • 1. Add 10 μl compound dilutions (5× final conc.) to test wells • 2. Add 10 μl 12.5% DMSO to control/blank wells • 3. Add 10 μl enzyme (50 μg/ml)—final conc. 500 ng/well • 4. Add 10 μl PBS to blank wells • 5. Add 30 μl of assay reagent to each well (final conc. 10 μM ATP, 2.5 μM substrate) • 6. Mix well on plate shaker • 7. Incubate 90 min (30° C.) • 8. Add 75 μl of stop solution to each well (final conc. 55 μM ATP) • 9. Spin plate: 3 min/1600 rpm/20° C. (alternatively leave to settle overnight) • 10. Read in Microbeta, Protocol SPA paralux 3.
As usually defined, the IC50 is the point on the concentration scale where inhibition reaches its midpoint. Regarding `CC(C)C(Nc1c(C(=O)c2ccccc2)ccc(=O)n1C)C(C)C` [Example 14, 5-Benzoyl-6-[(1-isopropyl-2-methylpropyl)amino]-1-methyl-2(1H)-pyridinone], the IC50 came to 1.88 µM.

`Nc1c(C(=O)c2ccccc2)ccc(=O)n1-c1ccccc1` [Example 6, 6-Amino-5-benzoyl-1-phenyl-2(1H)-pyridinone] gave an IC50 of 0.202 µM.

The compound `O=C(c1ccccc1)c1ccc(=O)[nH]c1NCC1CCCCC1` [Example 15, 5-Benzoyl-6-[(cyclohexylmethyl)amino]-2(1H)-pyridinone] returned an IC50 of 4.05 µM. Compared with the last compound, the IC50 is about 20-fold higher.

For the compound `O=C(c1ccccc1)c1ccc(=O)[nH]c1NC1CCCCC1` [Example 5, 5-Benzoyl-6-(cyclohexylamino)-2(1H)-pyridinone], the midpoint of inhibition, the IC50, lay at 1.29 µM.

As to `COc1ccc(-n2c(N)c(C(=O)c3ccccc3)ccc2=O)cc1` [Example 4, 6-Amino-5-benzoyl-1-(4-methoxyphenyl)-2(1H)-pyridinone], the IC50 was 0.299 µM.

In turn, `COc1ccc(-n2c(N)c(C(=O)c3ccc(F)cc3)ccc2=O)c(OC)c1` [Example 20, 6-Amino-1-(2,4-dimethoxyphenyl)-5-(4-fluorobenzoyl)-2(1H)-pyridinone] came in with an IC50 of 0.127 µM.

`Cc1ccc(-n2c(N)c(C(=O)c3ccccc3)ccc2=O)cc1` [Example 9, 6-amino-5-benzoyl-1-(4-methylphenyl)-2(1H)-pyridinone] came in with a concentration for half-maximal inhibition (IC50) of 0.209 µM.

`O=C(c1ccccc1)c1ccc(=O)n(Cc2ccccc2)c1NCc1ccccc1` [Example 2, 5-Benzoyl-1-benzyl-6-(benzylamino)-2(1H)-pyridinone]: it took 0.325 µM to reach half-maximal inhibition (IC50).
